# Results from US20150152091A1, “CROP ENHANCEMENT” (Syngenta Participations AG, priority 2012, published 2015).
# How the values were obtained:
# Type in all cases: in vivo
# [1] = tested on: Soybean seeds cv. Toliman; assay: Soybean seedling emergence in saturated warm test (seed treatment)
# Description: Soybean seeds cv. Toliman were treated with a test compound of formula I formulated as FS100, at a dose of 0.05 g ai/kg, 0.005 g ai/kg, or 0.0001 g ai/kg seeds. Seeds were planted on 2 cm levelled pre-chilled moist sand and covered with a 2 cm layer of a mixture of steamed soil and sand (1:1). Enough cold water (10° C.) was added to the sand-soil mixture to adjust soil moisture to 60% water holding capacity. The seeds were incubated at 10° C. in the dark for 10 days and transferred into a chamber with alternating temperature (25° C. day/23° C. night) and light source (12 h) for 10 days. Seedling emergence in % and dry mass of above parts of seedling per tray was determined at the end of the incubation period. The test was performed using four replicates (4×50 seeds). Treated seeds used in the saturated cold test were evaluated in parallel in a saturated warm test. Test conditions were the same as those described for the 10 day warm incubation period of the saturated cold test. Briefly, seeds were placed onto a saturated sand layer of 2 cm and covered with saturated sand-soil mixture (60% WHC) at room temperature. The seeds were incubated 10 days at 25° C. day/23° C. night and 12 h light. Seedling emergence and shoot dry mass was determined as described in the saturated cold test method. The test was performed using four replicates each 50 seeds.
# [2] = tested on: Soybean seeds cv. Toliman; assay: Soybean seedling emergence in saturated cold test (seed treatment); conditions: for Total shoot dry mass: per tray
# Description: Soybean seeds cv. Toliman were treated with a test compound of formula I formulated as FS100, at a dose of 0.05 g ai/kg, 0.005 g ai/kg, or 0.0001 g ai/kg seeds. Seeds were planted on 2 cm levelled pre-chilled moist sand and covered with a 2 cm layer of a mixture of steamed soil and sand (1:1). Enough cold water (10° C.) was added to the sand-soil mixture to adjust soil moisture to 60% water holding capacity. The seeds were incubated at 10° C. in the dark for 10 days and transferred into a chamber with alternating temperature (25° C. day/23° C. night) and light source (12 h) for 10 days. Seedling emergence in % and dry mass of above parts of seedling per tray was determined at the end of the incubation period. The test was performed using four replicates (4×50 seeds).
# [3] = tested on: temperate cauliflower Spacestar seeds (Brassica oleracea cv Botrytis); assay: Standard paper germination test for Brassica, suboptimal conditions; conditions: 25 μM, 10° C. in the light
# Description: The effect of compounds of Formula (I) on the germination of Brassica oleracea cv Botrytis or common cauliflower was tested on two types of cauliflowers: temperate types and tropical types. These two types were chosen because they display different sensitivities to the light conditions and temperature during germination. Germination of a sensitive temperate type is inhibited by light at 10° C. while for the tropical types germination at 20° is stimulated by the presence of light. […] The temperate seed batches tested are part of commercially produced seed batches of various varieties which are known to be sensitive to light at 10° C. These seeds were harvested and cleaned according standard commercial procedures. Ready seed batches were used (Ready indicates the processing level of these seeds: they have been cleaned and sized but received no other treatments). The tropical seed batches tested are part of seed batches produced as basic seed (for maintenance of the parental line) and were processed accordingly. Germination was assessed using the standard paper germination test for Brassica: Fifty seeds were placed on blue germination paper, which was moistened with the appropriate solutions, in closed oblong germination boxes. Each condition was tested in duplo. Germination boxes were placed in controlled germination cabinets with the appropriate temperature and light conditions. Germination of seeds was counted at regular intervals. Seeds were considered to be germinated when the radical had protruded the testa and endosperm (radical size approximately 1 mm). Test compounds were dissolved in DMSO at a concentration of 50 mM and stored at −20° C. The strigolactone analogue GR24 (commercially available as a racemic mixture of 2 diastereoisomers, referred to as “synthetic strigolactone GR-24” and first prepared by Johnson A. W. & all, Journal of the Chemical Society, Perkin Transactions 1, 1981, page 1734-1743) was included as positive control. Germination solutions were prepared by diluting the stock solutions with demineralized water till 25 μM. As control solutions demineralized water and a 0.05% v/v DMSO solution were used.
# [4] = 0.05 g ai/kg seeds, 10 days 25/23° C.
# [5] = 0.05 g ai/kg seeds, FS100, 10 days 10° C. dark then 10 days 25/23° C.
# [6] = Spacestar 11B313 (cold-sensitive), set A
# [7] = Spacestar 11B314 (not cold sensitive), set A
# [8] = Spacestar 11B313 (cold-sensitive), set B
# [9] = Spacestar 11B314 (not cold sensitive), set B
Structure (SMILES),Seedling emergence (%) ([1]; 0.0001 g ai/kg seeds),Total shoot dry mass ([1]; 0.0001 g ai/kg seeds) [g],Seedling emergence (%) ([1]; 0.005 g ai/kg seeds),Total shoot dry mass ([1]; 0.005 g ai/kg seeds) [g],Total shoot dry mass ([1]; 0.05 g ai/kg seeds) [g],"Seedling emergence (%) [1, 4] [%]","Seedling emergence (%) ([2]; 0.0001 g ai/kg seeds, FS100)",Total shoot dry mass ([2]; 0.0001 g ai/kg seeds) [g],"Seedling emergence (%) ([2]; 0.005 g ai/kg seeds, FS100)",Total shoot dry mass ([2]; 0.005 g ai/kg seeds) [g],"Seedling emergence (%) [2, 5] [%]",Total shoot dry mass ([2]; 0.05 g ai/kg seeds) [g],"Gmax (%), total germination as percentage of sown seeds [3, 6] [%]","stimulation (%), extra germination compared to the DMSO treatment [3, 6] [%]","Gmax (%), total germination as percentage of sown seeds [3, 7] [%]","stimulation (%), extra germination compared to the DMSO treatment [3, 7] [%]","Gmax (%), total germination as percentage of sown seeds [3, 8] [%]","stimulation (%), extra germination compared to the DMSO treatment [3, 8] [%]","Gmax (%), total germination as percentage of sown seeds [3, 9] [%]","stimulation (%), extra germination compared to the DMSO treatment [3, 9] [%]"
CC1=CC(OC=C2C(=O)N(C(=O)OC(C)(C)C)C3c4ccccc4CC23)OC1=O (mixture of isomers) [Compound A5],91,6.260,91.5,6.095,6.148,91.5,48,3.420,51.5,3.815,55,4.105,74.5,24.2,92.5,2.2,,,,
CC1=CC(OC=C2C(=O)NC3c4cccc(C)c4CC23)OC1=O (mixture of isomers) [Compound A9],,,,,,,,,,,,,,,,,59.8,10.6,94.0,9.3
CC1=CC(OC=C2C(=O)NC3c4ccccc4CC23)OC1=O (stereo not shown) [Compound A1],88.5,6.053,89,6.010,6.023,91,67.5,5.298,63.5,5.018,54.5,4.438,77.0,28.3,90.5,0.0,,,,
CC1=CC(OC=C2C(=O)NC3c4cccc(Br)c4CC23)OC1=O (stereo not shown) [Compound A2],89,5.763,87.5,6.105,6.325,91.5,48.5,3.810,49.5,3.725,56,3.993,,,,,,,,
CC1=CC(OC=C2C(=O)N(c3ccccc3)C3c4ccccc4CC23)OC1=O (stereo not shown) [Compound A3],91,6.158,87,6.235,5.918,81,67,4.838,57,4.540,51.5,3.850,74.5,24.2,89.5,−1.1,,,,
CC(=O)N1C(=O)C(=COC2C=C(C)C(=O)O2)C2Cc3ccccc3C21 (stereo not shown) [Compound A4],89,6.035,90,5.908,5.920,86,62,4.788,62.5,4.550,61.5,4.850,82.0,36.7,91.0,0.6,,,,
CC1=C(C)C(OC=C2C(=O)NC3c4ccccc4CC23)OC1=O (stereo not shown) [Compound A7],,,,,,,,,,,,,,,,,68.5,26.9,95.0,10.5
CC1=CC(OC=C2C(=O)N(C)C3c4ccccc4CC23)OC1=O (stereo not shown) [Compound A8],,,,,,,,,,,,,,,,,73.0,35.2,93.5,8.7
CC1=CC(OC=C2C(=O)NC3c4ccccc4CC23)OC1=O (stereo not shown) [Compound B1],91,5.778,94,6.440,5.935,89,58.5,4.440,67,5.065,44.5,3.365,60.5,0.8,93.5,3.3,,,,
"CC1=C[C@H](O/C=C2/C(=O)O[C@@H]3c4ccccc4C[C@H]23)OC1=O [GR24, reference compound]",,,,,,,,,,,,,71.5,19.2,93.5,3.3,80.0,48.1,93.0,8.1
